# According to a melting point compilation (Tetko et al.):
row,melting point [°C],SMILES
1,43 to 45,COc1nc(Cl)c(C=O)s1
2,49 to 51,Brc1ccc(OCC2CO2)cc1 (stereo unspecified)
3,165 to 167,Cc1cc(/C=C(\C#N)C(=O)O)c(C)n1-c1ccccc1F
4,149 to 151,O=S(=O)(Cl)C=Cc1ccc(Br)cc1
5,118 to 120,NC(=S)c1ccccc1O
6,52 to 54,C1CC(C2CCOCC2)CCN1
7,173 to 175,CCOC(=O)Cc1cc(=O)oc2ccc(O)cc12
8,309 to 311,CNC1(C(=O)O)CCCCC1
9,129 to 131,O=C(O)CSc1cc(Cl)ccc1Cl
10,141 to 143,O=C1CCC(C(F)(F)F)CN1 (stereo unspecified)
11,73 to 75,O=[N+]([O-])c1cccc(-c2cnc(CCCl)o2)c1
12,65 to 67,CN(C)C(=O)Sc1cnn(-c2ccccc2F)c1
13,256 to 258,O=C1Nc2cc(F)c(Cl)cc2C1=O
14,153 to 155,Cc1nc(COc2cccc(C(=O)O)c2)cs1
15,300 to 302,Nc1c(C(=O)O)[nH]c(=O)[nH]c1=O
16,103 to 105,C=CCN(c1ccccc1Cl)S(=O)(=O)c1cccc(C(=O)O)c1
17,152 to 154,O=C(O)c1ccc(Oc2ccc(Oc3ccccc3)cc2)nc1
18,149 to 151,Cc1c(N)cccc1CS(C)(=O)=O
19,95 to 97,COc1ccc(OCc2nc(C=O)cs2)cc1
20,44 to 46,Nc1c(F)cc(Cl)cc1F
21,137 to 139,O=C(/C=C/c1ccco1)C(C(=O)/C=C/c1ccco1)=C1SCCCCS1
22,159 to 161,CCC1(c2cccc(Cl)c2)NC(=O)NC1=O (stereo unspecified)
23,214 to 216,CC(C)(C)OC(=O)N1CCC2(C1)NC(=O)NC2=O (stereo unspecified)
24,141 to 143,O=S1(=O)NN=Cc2ccccc21
25,87 to 89,Cc1ccc(N)c(-c2nc(C3CC3)no2)c1
26,62 to 64,NNS(=O)(=O)CCc1ccccc1
27,33 to 35,CCC(CC)CS(N)(=O)=O
28,110 to 112,CC(C)C1=NN(C)C(=O)C1

row,melting point [°C],SMILES
1,159 to 161,CCc1ccc(-c2noc(S)n2)cc1
2,85 to 87,CNC(=O)Cc1ccccc1N
3,119 to 122,CCOc1ccc(C(=O)NCC(=O)O)cc1OCC
4,221 to 223,Cn1cc(OCc2ccccc2)c(=O)cc1CO
5,54 to 56,O=C(O)C1CCc2ccccc21 (stereo unspecified)
6,178 to 180,Cc1ccc(-n2nc(C)c(C(=O)O)n2)c(C)c1
7,212 to 214,Cc1cccc(C)c1NS(=O)(=O)c1ccc(N)cc1
8,109 to 111,O=C(CCCl)Nc1ccc(F)cc1
9,139 to 141,O=C1C=CC(=O)N1c1cc(Cl)cc(Cl)c1
10,67 to 69,Cc1cc2c(c(C)c1Cl)C(=O)CCO2
11,173 to 175,Clc1cccc(Nc2nc3ccccc3s2)c1
12,98 to 100,COc1cc(C)c(S(=O)(=O)Cl)cc1C
13,275 to 277,CSc1nc2nc(C)c(CC(=O)O)c(C)n2n1
14,47 to 49,O=S(=O)(c1ccccc1O)C(F)(F)F
15,203 to 205,CC(C)Oc1ccc(-c2nc(C(=O)O)cs2)cc1
16,178 to 180,O=C(O)c1ccc(NC2CC2)nc1
17,166 to 169,CCN(CC)S(=O)(=O)c1cc(N)ccc1C
18,145 to 147,CCOC(=O)Nc1ccc(NC(C)c2ccccn2)cc1 (stereo unspecified)
19,166 to 168,CCC(C)n1c(S)nnc1-c1ccccc1 (stereo unspecified)
20,102 to 104,Cc1cc(N)nc(N2CCOCC2)n1
21,190 to 192,NC(=O)NC(CC(=O)O)c1cccs1 (stereo unspecified)
22,184 to 186,O=C(Nc1cccc(O)c1)C1CC1
23,180 to 182,O=C(Cc1nc2ccccc2[nH]1)c1ccccc1
24,105 to 109,Cc1ccc(S(=O)(=O)N2CCC(N)CC2)cc1
25,131 to 133,Cc1nn(-c2ccc(Cl)cc2)c(C)c1C=O
26,170 to 172,CC1Cc2ccccc2N1S(=O)(=O)c1cccc(C(=O)O)c1 (stereo unspecified)
27,145 to 147,CC(C)Oc1cc(C(=O)O)ccn1

row,SMILES,melting point [°C]
1,CCc1nc2ccccc2n1C1CCNCC1,99 to 101
